The conditions of series [1]: rabbit, in vivo, iv.
Description: (§2) Rabbits were anesthetized with Ketamine and Nembutal™ and positioned beneath a gamma camera to allow continuous collection of data including a chest and abdomen view. 1 mCi of the test agent as specified below was injected via an ear vein and data collected continuously at 60 second intervals for 60 minutes. Curves were generated by drawing regions of interest over selected tissues and normalizing to counts per minute per pixel.
The time of maximum activity in the liver post injection is "^t max", while "t1/2" is the apparent half life of the clearance curve from ^t max. The latter data is an estimate based on data collected to 60 minutes after administration. This assumes a simple exponential curve with time, although more extensive studies might indicate more components are actually present.
Series [2] can be described thus: Scintigraphic imaging of the heart in rabbits. It is filed as in vivo, rabbit. The method, then:
(§1) Two rabbits were anesthetized with sodium pentobarbital and injected via an ear vein with 3-8 mCi of ^99m Tc-isonitrile complex. One rabbit was imaged using a gamma camera equipped with a pinhole collimator positioned directly over the chest. Three minute static images were acquired at 5, 10, […], 40, 50 and 60 minutes post injection. A second rabbit was used to investigate the relative whole body distribution of activity for 60 minutes post-injection. Immediately post-injection, 300 thousand count images were acquired in the following sequence of projections: chest, anterior heart, whole body, anterior heart, left lateral whole body, anterior heart, lateral heart, anterior heart.
FIG. 6(a) is a scintigraphic image of a rabbit injected with a complex of ^99m Tc-carboethoxyisopropylisonitrile at 5 minutes after injection, while FIG. 6(b) is a scintigraphic image of the same rabbit at 15 minutes after injection. FIG. 7(a) is a scintigraphic image of a rabbit injected with a complex of ^99m Tc-2-carboethoxyethylisonitrile at 1, 10, 15 and 20 minutes post injection. FIG. 7 (b) is a scintigraphic image of a rabbit injected with the above complex at 31 minutes post-injection. The heart is at (A), the gall bladder at (B) and the site of injection at (C). The interpretation of these images is known to the person of ordinary skill in this field.

The nature of series [3]: Scintigraphic images in animal and human tests. It is filed as in vivo. The settings on record: for usefulness for imaging the heart: in vivo. The method, then: Scintigrapic Imaging Procedure in Animals
as §1
Swine were sedated with intramuscular injections of Ketamine and acepromazine, and anesthetized with sodium pentobarbital. The animals were positioned for anterior image acquisition over the chest under a low energy, high resolution collimator and injected with 10-12 mCi ^99m Tc-isonitrile complex via a leg vein. The liver was covered with a lead shield, and three minute images were acquired at 5, 10, 20, 30, 40, 50 and 60 minutes post-injection.
After anesthetization with sodium pentobarbital, dogs were injected with 25 mCi of ^99m Tc and positioned for anterior chest image acquisition using a pinhole collimator. Again, three minute images were obtained at 5, 10, 20, 30, 40, 50 and 60 minutes post-injection.

The conditions of series [4]: rabbit, in vivo.
Description: as §2
The complexes were prepared, injected and imaged as described above.

Take `[C-]#[N+]C(C)C` [CNC(CH3)2 R, R = --H, isopropylisonitrile, reference compound]: in series [1], the t1/2 (apparent half life of the liver clearance curve from tmax) amounted to 98 min and the “tmax (time of maximum activity in the liver post injection)” value was found to be 5 min.
For the compound `[C-]#[N+]C` [CNCH2 R, R = --H, methyl isonitrile, reference compound], in series [1], the “t1/2 (apparent half life of the liver clearance curve from tmax)” value stood at 88 min and the “tmax (time of maximum activity in the liver post injection)” value is 14 min.
`[C-]#[N+]CC` [CNCH(R)CH3, R = --H, ethyl isonitrile, reference compound]: in series [1], the “t1/2 (apparent half life of the liver clearance curve from tmax)” value worked out at 270 min and the “tmax (time of maximum activity in the liver post injection)” value was 2 min.
“Hexakis carbomethoxymethylisonitrile Technetium Cation [CNCH2 R, R = --COOCH3]”: in series [1], the “t1/2 (apparent half life of the liver clearance curve from tmax)” value was found to be 37 min and the “tmax (time of maximum activity in the liver post injection)” value is 1 min.
In the case of “^99m TC-hexakis carbo-t-butoxymethylisonitrile technetium [CNCH2 R, R = --COO^t C4 H9]”, in series [1], the “t1/2 (apparent half life of the liver clearance curve from tmax)” value is listed as 25 min and the “tmax (time of maximum activity in the liver post injection)” value stood at 5 min.
Regarding “^99m Tc-Hexakis-1-carbomethoxyisopropylisonitrile Technetium (I) [CNC(CH3)2 R, R = --COOCH3]”, in series [2] (by 20 minutes after injection, after liver clearance), the “resolution of the apex of the heart” value is listed as “excellent resolution of the apex”. Moreover, in series [2] (five minutes after injection), the “resolution of the myocardium” value is “very good to excellent resolution of the myocardium”. Besides, in series [2] (initially, background noise from liver uptake), the “visualization of the apex of the heart” value is “initially prevents clear visualization of the apex of the heart”. In addition, the “usefulness for imaging the heart” value in series [3] is listed as “particularly useful for imaging the heart”. In series [4], the lung clearance entry is given as “rapid lung clearance”. Moreover, in series [1], the t1/2 (apparent half life of the liver clearance curve from tmax) was found to be 35 min and the “tmax (time of maximum activity in the liver post injection)” value is 3 min.
Regarding “^99m Tc-Hexakis-2-carboethoxyethylisonitrile Technetium (I) [CNCH2 CH2 R, R = --COOC2 H5]”, in series [3] (animal and human tests), the image quality result is “excellent images in both animal and human tests”. The “usefulness for imaging the heart” value in series [3] was “particularly useful for imaging the heart”. In series [1], the “t1/2 (apparent half life of the liver clearance curve from tmax)” value came to 17 min and the “tmax (time of maximum activity in the liver post injection)” value worked out at 2 min.

The record behind these values is US4735793A, “Carboxy, carboalkoxy and carbamile substituted isonitrile radionuclide complexes” (Massachusetts Institute of Technology, priority 1985, dated 1988).
